# Test results reported in patent US20110046107A1, “SULFONYL-SUBSTITUTED CARBAPENEM COMPOUNDS” (priority 2007, published 2011).
# Where two headings read alike, the source gives them in different places.
# How the values were obtained:
# [1] = system: penicillin-sensitive streptococcus pneumoniae (PSSP); assay: In vitro antibacterial activity, agar dilution method (clinical isolates); type: cell-based; settings: clinically isolated strains, Gram-positive, read-out: MIC90 S. pneumoniae PSSP
# Excerpt: (§1) Bacterial strains for test: All the bacterial strains are clinical isolates and purchased from public organizations. methicillin-sensitive staphylococcus aureus (MS SA), methicillin-resistant staphylococcus aureus (MRSA), methicillin-sensitive staphylococcus epidermidis (MSSE), methicillin-resistant staphylococcus epidermidis (MRSE), streptococcus pyogenes, penicillin-sensitive streptococcus pneumoniae (PSSP), penicillin-resistant streptococcus pneumoniae (PRSP), Escherichia coli, Citrobacter freundii, Enterobacter cloacae, Hemophilus influenza, Klebsiella pneumonia (producing ESBL), Morganella morganii, Proteus mirabilis, Serratia marcescens, and Pseudomonas aeruginosa.
# (§2) Drugs to be tested: compounds of the invention prepared in the examples; the chemical names, structural formulae, preparation materials, and preparation methods are provided in the preparation examples of the compounds;
# (§3) Meropenem (Meropenem for injection), Ertapenem (Ertapenem for injection), and Doripenem (Doripenem for injection) commercially available
# (§4) Experimental method: the agar dilution method, by reference to Methodology of Pharmacological Experiment (XU Shuyun et al, published by the Peoples Medical Publishing House, 1st Edition, August, 1982; 3rd Edition, 5th printing, January 2002, p 1659-1660).
# Escherichia coli = assay: as above; type: cell-based; settings: clinically isolated strains, Gram-negative, read-out: MIC90 E. coli
# Excerpt: as §1, §2, §3, §4
# [2] = system: methicillin-resistant staphylococcus epidermidis (MRSE); assay: as above; type: cell-based; settings: clinically isolated strains, Gram-positive, read-out: MIC90 S. epidermidis MRSE
# Excerpt: as §1, §2, §3, §4
# Citrobacter freundii = assay: as above; type: cell-based; settings: clinically isolated strains, Gram-negative
# Excerpt: as §1, §2, §3, §4
# Hemophilus influenza = assay: as above; type: cell-based; settings: read-out: MIC90 Hemophilus influenza
# Excerpt: as §1, §2, §3, §4
# [3] = system: Klebsiella pneumonia (producing ESBL); assay: as above; type: cell-based; settings: Klebsiella pneumoniae; clinically isolated strains (producing ESBL), Gram-negative, agar dilution; read-out: MIC90 Klebsiella pneumonia
# Excerpt: as §1, §2, §3, §4
# streptococcus pyogenes = assay: as above; type: cell-based; settings: clinically isolated strains, Gram-positive, read-out: MIC90 S. pyogenes
# Excerpt: as §1, §2, §3, §4
# Serratia marcescens = assay: as above; type: cell-based; settings: read-out: MIC90 Serratia marcescens
# Excerpt: as §1, §2, §3, §4
# Enterobacter cloacae = assay: as above; type: cell-based; settings: read-out: MIC90 Enterobacter cloacae
# Excerpt: as §1, §2, §3, §4
# Morganella morganii = assay: as above; type: cell-based; settings: clinically isolated strains, Gram-negative
# Excerpt: as §1, §2, §3, §4
# Proteus mirabilis = assay: as above; type: cell-based; settings: clinically isolated strains, Gram-negative, agar dilution, read-out: MIC90 Proteus mirabilis
# Excerpt: as §1, §2, §3, §4
# [4] = system: methicillin-sensitive staphylococcus aureus (MSSA); assay: as above; type: cell-based; settings: read-out: MIC90 S. aureus MSSA
# Excerpt: as §1, §2, §3, §4
# [5] = system: methicillin-sensitive staphylococcus epidermidis (MSSE); assay: as above; type: cell-based; settings: read-out: MIC90 S. epidermidis MSSE
# Excerpt: as §1, §2, §3, §4
# [6] = system: penicillin-resistant streptococcus pneumoniae (PRSP); assay: as above; type: cell-based; settings: clinically isolated strains, Gram-positive, read-out: MIC90 S. pneumoniae PRSP
# Excerpt: as §1, §2, §3, §4
# [7] = system: methicillin-resistant staphylococcus aureus (MRSA); assay: as above; type: cell-based; settings: clinically isolated strains, Gram-positive, read-out: MIC90 S. aureus MRSA
# Excerpt: as §1, §2, §3, §4
# Pseudomonas aeruginosa = assay: as above; type: cell-based; settings: clinically isolated strains, Gram-negative
# Excerpt: as §1, §2, §3, §4
# [8] = Pharmacokinetic study of the compounds in SD rat (intravenous injection); type: in vivo, SD male rats
# Procedure: Test drugs: the compound 1, 6, 8 and 9 prepared in the examples
# Control drugs: Meropenem (Meropenem for injection), commercially available; Doripenem (Doripenem for Injection).
# Internal standard substance: Warfarin, a white powder, purity 99%, batch number: 0072-8501, provided by Shanghai Institute for Drug Control.
# Drug formulation: the test drugs were formulated before use by being dissolved in physiological saline to make a final concentration of 5 mg/mL for intravenous injection.
# Test animal: SD male rats, weight: 200˜250 g, purchased from SHANGHAI SLAC LABORATORY ANIMAL CO. LTD.
# Drug administration: The SD male rats were randomly divided into five groups with 3 in each group, and given the drugs by intravenous injection at a dose of 10 mg/kg. The animals were weighed before administration.
# Collection of Samples: Zero time was marked before administration; 0.5 mL of blood was respectively sampled from orbit venous plexus at 5 min, 15 min, 30 min, 45 min, 1 h, 2 h, 4 h, 6 h, 8 h, 24 h after administration into heparinized centrifuge tubes. The samples were centrifuged for 6 minutes at 8000 rpm and the supernatant plasma was separated. The plasma was frozen at −20° C. for LC-MS/MS analysis.
# Chromatographic conditions: column: Gemini C6-Phenyl (50 mm×4.6 mm, 5 μm); mobile phase: 0.1% of formic acid-water-acetonitrile (5:35:60, v/v/v); flow rate: 1 mL/min; column temperature: 35-40° C.; injection volume: 5 μL; split ratio: 1/5.
# Mass spectrometer conditions: scanning mode: cation multiple reactions monitoring (MRM); ion source: electrospray ionization (ESI); Nebulize gas: 8 L/min; Curtain gas: 8 L/min; Collision gas: 4 L/min; Ionspray voltage: 4500 v; Temperature: 400° C./500° C.
# Preparation of the Standard Curve and Quality-Control Sample: a Suitable Amount of the test drug was weighed precisely and then formulated into a stock solution (2.6 mg/mL) with ultrapure water. The stock solution was diluted with methanol to obtain a series of working solutions in a concentration of 25000, 5000, 2500, 500, 250 and 50 ng/mL, respectively. 100 μL of plasma samples were separately added into 20 μL of said working solutions to obtain the calibration solutions in a concentration of 5000, 1000, 500, 100, 50 and 10 ng/mL. By the same method, the quality-controlled sample solutions in a concentration of 4000, 800 and 20 ng/mL can be prepared. A standard curve was obtained by chromatographic analysis of the samples.
# Sample preparation: 20 μL of acetonitrile and 200 μL (200 ng/mL) of Warfarin in acetonitrile were added into 100 μL of plasma sample, then spun for 1 minute and centrifuged for 5 minutes at 15000 rpm. 100 μL of the supernatant was taken, where 3 μL aliquot of the supernatant was used for the LC/MS/MS analysis.
# Dosing concentration: The accuracy of the drug concentration in dosing solution for intravenous injection was 103.2%, determined by analysis of the formulated drugs using HPLC and comparison with the standards.
# Data analysis: The drug concentration in plasma would be considered as zero if under the detection limit (10 ng/mL). The pharmacokinetics parameters were calculated by the non-compartment model using Winnonlin Professional 5.2 pharmacokinetics software.
# Pharmacokinetics: The pharmacokinetics parameters and drug concentration-time curve were obtained by measuring the plasma drug concentration at different time points.
# [9] = cited from earlier work
# [10] = clinically isolated strains, Gram-negative, agar dilution
# [11] = clinically isolated strains, Gram-positive, agar dilution
# [12] = in vivo, SD male rats, intravenous injection 10 mg/kg, plasma, X ± SD, n = 3, read-out: t1/2 (half lives) (converted)
SMILES,MIC90 [1],MIC90 (Escherichia coli),MIC90 [2],MIC90 (Citrobacter freundii),MIC90 (Hemophilus influenza),MIC90 [3],MIC90 (streptococcus pyogenes),MIC90 (Serratia marcescens; [10]),MIC90 (Enterobacter cloacae; [10]),MIC90 (Morganella morganii),MIC90 (Proteus mirabilis),"MIC90 [4, 11]","MIC90 [5, 11]",MIC90 [6],MIC90 [7],MIC90 (Pseudomonas aeruginosa),"half-life [8, 12]",MIC90 (Hemophilus influenza; [10]),half-lives in human body [9],also measured
"C[C@@H](O)[C@H]1C(=O)N2C(C(=O)O)=C(SC3CN(S(N)(=O)=O)C3)[C@H](C)[C@H]12 [Compound 1, (4R,5S,6S)-3-[N-aminosulfonyl-azetidin-3-yl]thio-6-[(1R)-1-hydroxyethyl]-4-methyl-7-oxo-1-aza-bicyclo-[3.2.0]hept-2-ene-2-carboxylic acid]",0.008 µg/mL,0.008 µg/mL,4 µg/mL,0.016 µg/mL,0.063 µg/mL,0.032 µg/mL,0.004 µg/mL,0.063 µg/mL,0.063 µg/mL,0.032 µg/mL,0.63 µg/mL,0.032 µg/mL,0.063 µg/mL,0.5 µg/mL,4 µg/mL,4 µg/mL,19.2 ± 1.2 min,–,–,–
"C[C@@H](O)[C@H]1C(=O)N2C(C(=O)O)=C(SC3CN(S(=O)(=O)N(C)C)C3)[C@H](C)[C@H]12 [Compound 6, (4R,5S,6S)-3-[1-(N,N-dimethylaminosulfonyl)-azetidin-3-yl]-thio-6-[(1R)-1-hydroxyethyl]-4-methyl-7-oxo-1-aza-bicyclo-[3.2.0]hept-2-ene-2-carboxylic acid]",0.004 µg/mL,0.016 µg/mL,16 µg/mL,0.063 µg/mL,–,0.125 µg/mL,0.008 µg/mL,0.063 µg/mL,0.25 µg/mL,0.063 µg/mL,0.063 µg/mL,0.063 µg/mL,0.063 µg/mL,1 µg/mL,8 µg/mL,16 µg/mL,18 ± 1.8 min,0.25 µg/mL,–,–
"CCCCN(CCCC)S(=O)(=O)N1CC(SC2=C(C(=O)O)N3C(=O)[C@H]([C@@H](C)O)[C@H]3[C@H]2C)C1 [Compound 8, (4R,5S,6S)-3-[1-(N,N-dibutylaminosulfonyl)-azetidin-3-yl]thio-6-[(1R)-1-hydroxyethyl]-4-methyl-7-oxo-1-aza-bicyclo-[3.2.0]hept-2-ene-2-carboxylic acid]",0.004 µg/mL,0.016 µg/mL,8 µg/mL,0.016 µg/mL,–,0.032 µg/mL,0.004 µg/mL,–,–,0.032 µg/mL,0.063 µg/mL,–,–,1 µg/mL,8 µg/mL,8 µg/mL,16.2 ± 1.8 min,0.125 µg/mL,–,MIC90 (Serratia marcescens): 0.125 µg/mL; MIC90 (Enterobacter cloacae): 0.125 µg/mL; MIC90 [4]: 0.125 µg/mL; MIC90 [5]: 0.125 µg/mL
"C[C@@H](O)[C@H]1C(=O)N2C(C(=O)O)=C(SC3CN(S(=O)(=O)NCC(O)CN)C3)[C@H](C)[C@H]12 (stereo partly drawn) [Compound 9, (4R,5S,6S)-3-[1-(2-hydroxy-3-aminopropylaminosulfonyl)-azetidin-3-yl]thio-6-[(1R)-1-hydroxyethyl]-4-methyl-7-oxo-1-aza-bicyclo-[3.2.0]-hept-2-ene-2-carboxylic acid]",–,–,–,–,–,–,–,–,–,–,–,–,–,–,–,–,19.2 ± 3.6 min,–,–,–
"C[C@@H](O)[C@H]1C(=O)N2C(C(=O)O)=C(S[C@@H]3CN[C@H](CNS(N)(=O)=O)C3)[C@H](C)[C@H]12 [doripenem, Doripenem, reference compound]",0.016 µg/mL,0.063 µg/mL,16 µg/mL,0.063 µg/mL,0.5 µg/mL,0.125 µg/mL,0.008 µg/mL,0.25 µg/mL,0.025 µg/mL,0.063 µg/mL,0.5 µg/mL,0.125 µg/mL,0.125 µg/mL,1 µg/mL,16 µg/mL,8 µg/mL,–,–,about 1 h,"half-life ([8]; male, SD, in vivo, iv, 10 mg/kg): 6.6 ± 0.6 min"
"C[C@@H](O)[C@H]1C(=O)N2C(C(=O)O)=C(S[C@@H]3CN[C@H](C(=O)N(C)C)C3)[C@H](C)[C@H]12 [meropenem, Meropenem, reference compound]",0.016 µg/mL,0.032 µg/mL,32 µg/mL,0.063 µg/mL,–,0.5 µg/mL,0.008 µg/mL,0.125 µg/mL,1 µg/mL,0.063 µg/mL,0.125 µg/mL,0.25 µg/mL,0.25 µg/mL,1 µg/mL,64 µg/mL,16 µg/mL,–,0.25 µg/mL,about 1 h,"half-life ([8]; SD male rats, intravenous injection 10 mg/kg, plasma, X ± SD, n = 3, read-out: t1/2 (half lives) (converted)): 7.2 ± 0.6 min"
